Test results: patent publication US20240165087A1, “APPLICATION OF RILUZOLE- AND BORNEOL-CONTAINING COMPOSITION IN PREPARATION OF MEDICATION FOR TREATING CEREBROVASCULAR DISEASES” (NEURODAWN PHARMACEUTICAL CO., LTD., priority 2021, published 2024)

Legend:
primary cortical neurons = experiment: NMDA-induced excitatory injury test on primary cortical neurons (Luminescent Cell Viability Assay); format: cell-based, rat
Protocol: Pregnant SD rats at 18 days of pregnancy were sacrificed by cervical dislocation. The uterus of rats was dissected and the brain of E18 fetal rats was taken out. The cerebral cortex tissue of the fetal rats was separated into ice-cold DMEM. The meninges and blood vessels on the cortical tissue were removed under a dissecting microscope. The cortical tissue was transferred into ice-cold DMEM, cut into pieces (about 1 mm^3), and digested with trypsin at 37° C. for 10 min. The digestion was stopped with FBS. The obtained cells were blown gently with a Pasteur pipette and passed through a 200-mesh sieve. The filtered cell suspension was transferred to a 15 mL centrifuge tube, and centrifuged at 1000 rpm for 5 min. The supernatant was discarded. Then the cell mass at the bottom of the centrifuge tube was blown gently with 37° C.-prewarmed complete medium (Neurobasal+B27+GlutaMax+1% P/S). The cells were counted using a hemocytometer, diluted to 5×10^5 cells/mL with complete medium, and seeded in a 96-well plate coated with PDL (100 μL/well). Half of the cell culture medium was replaced with complete medium the next day. […] After the inducing buffer was discarded, the cells were washed once with a Locke's buffer containing 1 mM MgCl2, and recovered to be incubated for 4 h by replacing with a complete medium (100 μL/well). The viability of the primary neuron cells was determined by Luminescent Cell Viability Assay kit. According to the instruction, reagents were added at 100 μL/well, and shaking was performed for 10 min. […] Calculation formula: relative neuron activity V (%)=(LUM-LUMbackground)/(LUMnormal control group-LUMbackground group)×100%. LUMbackground was the background reading of the Luminescent Cell Viability Assay reagent added to the cell-free complete medium well. […] Fitting of EC50 of compounds: Log[compound concentration] was used as the abscissa and the relative inhibition rate was used as the ordinate. Log(inhibitor) vs. response-variable slope (four parameters) curve was fitted by Prism8 (GraphPad) to obtain the IC50 of the compounds. […] After the inducing buffer was discarded, the cells were washed once with a Locke's buffer containing 1 mM MgCl2, and recovered to be incubated for 4 h by replacing with a complete medium (100 μL/well). […] After the inducing buffer was discarded, the cells were washed once with a Locke's buffer containing 1 mM MgCl2, and recovered to be incubated for 4 h by replacing with a complete medium (100 μL/well). […] After the inducing buffer was discarded, the cells were washed once with a Locke's buffer containing 1 mM MgCl2, and recovered to be incubated for 4 h by replacing with a complete medium (100 μL/well). […] After the inducing buffer was discarded, the cells were washed once with a Locke's buffer containing 1 mM MgCl2, and recovered to be incubated for 4 h by replacing with a complete medium (100 μL/well).

MCAO rats = experiment: Rat focal cerebral ischemia-reperfusion model (MCAO), neurological deficit score and cerebral infarction area; format: in vivo; conditions: Example 6
Text: The rat focal cerebral ischemia-reperfusion model was established by internal carotid artery suture method. The limbs (hind limbs above the knee joint and forelimbs above the wrist joint) and head of an anesthetized rat were tightened with rubber bands. The animal was fixed on an operating table in supine position, and was shaved with an animal shaver from the head to the chest, and the skin was disinfected with alcohol. The neck of the rat was cut at the midline, and the subcutaneous tissue was bluntly separated. The thin layer of fascia on the surface of the anterior triangle of the neck was separated, the lower side-lower edge of the clavicular hyoid muscle was pulled up, and the longitudinally pulsating artery parallel to this muscle can be seen. The arterial shell was opened, and the bifurcation of the right carotid artery was exposed. The right common carotid artery, external carotid artery and internal carotid artery were separated. The vagus nerve was gently stripped, and the external carotid artery was ligated and cut. The proximal end of the common carotid artery was clamped. An incision was made at the distal end from the ligature of the external carotid artery, and was inserted with a suture line, which was passed through the bifurcation of the common carotid artery into the internal carotid artery, and then was inserted slowly until reaching slight resistance (approximately 20 mm from the bifurcation), so as to block all blood supply to the middle cerebral artery. The suture line was slightly fixed below the incision of the external carotid artery with silk thread. The silk thread clamping the proximal end of the common carotid artery was loosened. A gauze soaked in sterile saline was covered on the wound, and the rat was placed on a heat preservation pad to keep warm. 2.0 h after cerebral ischemia on the right side, the suture line was pulled out gently to restore the blood supply for reperfusion. The external carotid artery was ligated with silk thread fixing the suture line. The skin was stitched, and disinfected. The rats were placed in clean feed, and their general condition and respiration were observed until they woke up from anesthesia. The rats were provided with food and water, and commonly reared.
After the cerebral ischemia model was established, the animals were assigned to each group in a single-blind manner with equal probability. After reperfusion, the animals were immediately administered intravenously with the drugs once. The animals in the model group were administered with an equal volume of normal saline. Neurological deficit symptoms were evaluated 24 hours after cerebral ischemia, the animals were sacrificed, and their brains were taken out, stained, and photographed for determining the area of cerebral infarction.
Neurological deficit symptoms were evaluated using the modified Bederson 5-point scale. The neurological deficit symptoms of rats after cerebral ischemia were evaluated by a single-blind method. […] After scoring, the scoring results of various markers were submitted to the designer, who unblinded and obtained the scoring of each animal in each experimental group.
The degree of cerebral infarction was determined by TTC staining. After the evaluation of the symptoms of neurological deficits was completed, the animals were sacrificed with CO2. The brain was taken out by cutting off head. The olfactory bulb, cerebellum and lower brainstem were removed. The blood on the surface of the brain was washed with normal saline, and the residual water on the surface was removed. The brain was placed at −20° C. for 20 min, then taken out, immediately cut to a coronal section vertically downward at the crossing plane of the line of sight, and sliced backward every 2 mm. The brain slices were incubated in 1% TTC staining solution (at 37° C. for 30 min). The normal brain tissue was stained into dark red, and the ischemic brain tissue was stained into pale white.

[1] = molecular target: T1, recombinant human GABAAR (α1β2γ2L) (Homo sapiens, UniProt P14867+P18507+P47870); conditions: Xenopus laevis oocytes, cited from earlier work
T1 construct: host or cells: Xenopus laevis oocytes

[2] = molecular target: N-methyl-D-aspartate (NMDA) receptors; conditions: read-out: IC50, noncompetitive block of NMDA receptors; cited from earlier work
kainic acid receptors = conditions: read-out: IC50, block of kainic acid receptors; cited from earlier work

T1 sequence (P14867 28-456): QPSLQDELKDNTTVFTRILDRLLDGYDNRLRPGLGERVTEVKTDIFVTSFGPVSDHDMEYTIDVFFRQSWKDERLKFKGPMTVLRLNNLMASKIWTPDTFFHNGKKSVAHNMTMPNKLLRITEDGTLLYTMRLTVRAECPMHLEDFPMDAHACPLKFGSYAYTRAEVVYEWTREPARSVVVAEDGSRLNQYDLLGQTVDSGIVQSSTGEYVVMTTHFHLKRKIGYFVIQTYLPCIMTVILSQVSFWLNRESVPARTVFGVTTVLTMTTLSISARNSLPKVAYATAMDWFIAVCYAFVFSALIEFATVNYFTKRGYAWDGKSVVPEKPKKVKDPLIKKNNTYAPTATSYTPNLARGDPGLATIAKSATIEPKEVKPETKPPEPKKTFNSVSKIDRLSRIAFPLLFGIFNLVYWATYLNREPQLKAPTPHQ
T1 sequence (P47870 25-512 limits assumed): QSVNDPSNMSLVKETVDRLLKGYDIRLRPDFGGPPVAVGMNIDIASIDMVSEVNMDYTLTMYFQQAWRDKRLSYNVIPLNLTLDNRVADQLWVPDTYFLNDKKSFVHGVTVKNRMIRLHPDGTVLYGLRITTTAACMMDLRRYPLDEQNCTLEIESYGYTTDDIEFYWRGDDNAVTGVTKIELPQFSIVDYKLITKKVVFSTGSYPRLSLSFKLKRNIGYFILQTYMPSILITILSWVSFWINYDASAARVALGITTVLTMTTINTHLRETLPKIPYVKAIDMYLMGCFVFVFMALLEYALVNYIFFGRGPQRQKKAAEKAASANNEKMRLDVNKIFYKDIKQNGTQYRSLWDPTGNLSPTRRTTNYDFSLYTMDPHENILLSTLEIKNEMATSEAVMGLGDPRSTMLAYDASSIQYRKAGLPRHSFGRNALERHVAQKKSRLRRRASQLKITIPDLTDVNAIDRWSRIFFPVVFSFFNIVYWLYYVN
T1 sequence (P18507 40-475): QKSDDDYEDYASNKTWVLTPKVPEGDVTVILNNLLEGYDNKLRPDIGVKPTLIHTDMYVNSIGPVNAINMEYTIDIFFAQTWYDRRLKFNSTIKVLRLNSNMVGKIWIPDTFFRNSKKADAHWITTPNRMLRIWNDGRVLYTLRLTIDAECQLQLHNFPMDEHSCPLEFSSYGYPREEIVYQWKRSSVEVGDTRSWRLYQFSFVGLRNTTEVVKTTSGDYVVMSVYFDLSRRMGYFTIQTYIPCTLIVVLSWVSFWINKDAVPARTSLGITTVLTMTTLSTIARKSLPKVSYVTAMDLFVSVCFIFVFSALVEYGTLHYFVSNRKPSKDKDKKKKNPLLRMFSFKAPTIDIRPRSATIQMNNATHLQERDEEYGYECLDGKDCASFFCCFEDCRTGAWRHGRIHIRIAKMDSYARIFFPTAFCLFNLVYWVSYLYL

CC1(C)[C@@H]2CC[C@@]1(C)[C@@H](O)C2 [(+)-2-Borneol]
viability of neurons with excitatory injury (primary cortical neurons; Example 1, 0.41-3.7 μM): concentration-dependently increased | viability of neurons with excitatory injury (primary cortical neurons; Example 1, 10-100 μM): tended to decrease | viability of neurons with NMDA-induced excitatory injury (primary cortical neurons; Example 2, alone at 3.7 μM): significantly improve | Fa, protecting neurons from excitatory injury (primary cortical neurons; Example 3, (+)-2-borneol 0.5 μM): 0.014 | Fa, protecting neurons from excitatory injury (primary cortical neurons; Example 3, (+)-2-borneol 1 μM): 0.022 | Fa, protecting neurons from excitatory injury (primary cortical neurons; Example 3, (+)-2-borneol 2 μM): 0.152 | Fa, protecting neurons from excitatory injury (primary cortical neurons; Example 3, (+)-2-borneol 4 μM): 0.22 | Fa, protecting neurons from excitatory injury (primary cortical neurons; Example 3, (+)-2-borneol 8 μM): 0.231 | viability of neurons with injury induced by NMDA (primary cortical neurons; Example 3, riluzole 10-160 μM, (+)-2-borneol 0.5-8 μM, compositions 20:1): concentration-dependently increase | Fa, protecting neurons from excitatory injury (primary cortical neurons; Example 4, (+)-2-borneol 0.5 μM): 0.042 | Fa, protecting neurons from excitatory injury (primary cortical neurons; Example 4, (+)-2-borneol 1 μM): 0.069 | Fa, protecting neurons from excitatory injury (primary cortical neurons; Example 4, (+)-2-borneol 2 μM): 0.086 | Fa, protecting neurons from excitatory injury (primary cortical neurons; Example 4, (+)-2-borneol 4 μM): 0.209 | Fa, protecting neurons from excitatory injury (primary cortical neurons; Example 4, (+)-2-borneol 8 μM): 0.205 | viability of neurons with injury induced by NMDA (primary cortical neurons; Example 4, riluzole 2.5-40 μM, (+)-2-borneol 0.5-8 μM, compositions 5:1): concentration-dependently increase | Fa, protecting neurons from excitatory injury (primary cortical neurons; Example 5, (+)-2-borneol 0.5 μM): 0.042 | Fa, protecting neurons from excitatory injury (primary cortical neurons; Example 5, (+)-2-borneol 1 μM): 0.077 | Fa, protecting neurons from excitatory injury (primary cortical neurons; Example 5, (+)-2-borneol 2 μM): 0.128 | Fa, protecting neurons from excitatory injury (primary cortical neurons; Example 5, (+)-2-borneol 4 μM): 0.205 | Fa, protecting neurons from excitatory injury (primary cortical neurons; Example 5, (+)-2-borneol 8 μM): 0.202 | viability of neurons with injury induced by NMDA / protective effect (primary cortical neurons; Example 5, riluzole 0.5-8 μM, (+)-2-borneol 0.5-8 μM, compositions 1:1): concentration-dependently increase | Emax (primary cortical neurons; Rattus norvegicus, Primary cortical neuron, Example 1, concentration-inhibition rate curve, read-out: Emax (relative inhibition rate)): 15% | neurological deficit score vs MCAO model group (MCAO rats; 1 mg/kg i.v. once after reperfusion, 24 hours): significantly reduced | cerebral infarction area vs MCAO model group (MCAO rats; 0.5 and 1 mg/kg i.v. once after reperfusion, 24 hours): dose-dependently, significantly reduced | Fa, reducing the area of cerebral infarction in MCAO rats (MCAO rats; (+)-2-borneol 0.5 mg/kg): 0.157 | Fa, reducing the area of cerebral infarction in MCAO rats (MCAO rats; (+)-2-borneol 1 mg/kg): 0.256 | neurological deficit score of MCAO rats, dose dependence (MCAO rats; i.v. once after reperfusion, evaluated 24 hours after cerebral ischemia): dose-dependently reduce | EC50 ([1]; low concentration of GABA, read-out: EC50, enhancement of GABAAR function): 248 µM | enhancement of function of GABAAR induced by low concentration of GABA [1]: more than 10 times

Nc1nc2ccc(OC(F)(F)F)cc2s1 [Riluzole, 2-Amino-6-trifluoromethoxybenzothiazole]
neurological deficit score vs MCAO model group (MCAO rats; 8 mg/kg i.v. once after reperfusion, 24 hours): significantly reduced | IC50 [2]: 18 µM | IC50 (kainic acid receptors): 167 µM
